Test results: patent US7820703B2, “Lysophosphatidic acid receptor selective antagonists” (University of Virginia Patent Foundation, priority 2004, dated 2010)
“Also recorded” adds a separate entry of the source.

Key:
human LPA2 [1] = target: T1, human LPA2 (Homo sapiens, UniProt Q9HBW0); assay: GTP[γ35S] binding assay, agonist activity at LPA2; format: biochemical; set-up: expressed in transfected cells; host or cells: HEK293T cells (membranes)
Procedure: (§1) The appropriate receptor plasmid DNA (encoding mouse LPA1, human LPA2 or human LPA3) was mixed with equal amounts of expression plasmids (pcDNA3) encoding a mutated (C351F) rat Gi2a, cow β1, and γ2 proteins and these DNAs were used to transfect monolayers of HEK293T cells (where ‘T’ indicates expression of the SV-40 virus large T antigen) using the calcium phosphate precipitate method. After about 60 hours, cells were harvested, membranes were prepared, aliquoted and stored at −70° C. until use.
(§2) The GTP[35 γS] assay was performed as described by us previously. Membranes containing 5 ug of protein were incubated in 0.1 ml GTP-binding buffer (in mM: HEPES 50, NaCl 100, MgCl2 10, pH7.5) containing […], […], 0.1 nM GTP[35 γS] (1200 Ci/mmol), and indicated lipid(s) for 30 minutes at 30° C. Samples were analyzed for membrane-bound radionuclide using a Brandel Cell Harvester (Gaithersburg, Md.).
(§3) Membranes prepared from these cells are used to measure GTPγ[^35S] binding as a function of test compound concentration. The resulting dose-response curves provide relative potency (EC50) and efficacy (Emax) for the test compounds.

mouse LPA1 [2] = target: T2, mouse LPA1 (Mus musculus, UniProt P61793); assay: GTP[γ35S] binding assay, agonist activity at LPA1; format: biochemical; set-up: expressed in transfected cells; host or cells: HEK293T cells (membranes)
T2 sequence (P61793 whole entry): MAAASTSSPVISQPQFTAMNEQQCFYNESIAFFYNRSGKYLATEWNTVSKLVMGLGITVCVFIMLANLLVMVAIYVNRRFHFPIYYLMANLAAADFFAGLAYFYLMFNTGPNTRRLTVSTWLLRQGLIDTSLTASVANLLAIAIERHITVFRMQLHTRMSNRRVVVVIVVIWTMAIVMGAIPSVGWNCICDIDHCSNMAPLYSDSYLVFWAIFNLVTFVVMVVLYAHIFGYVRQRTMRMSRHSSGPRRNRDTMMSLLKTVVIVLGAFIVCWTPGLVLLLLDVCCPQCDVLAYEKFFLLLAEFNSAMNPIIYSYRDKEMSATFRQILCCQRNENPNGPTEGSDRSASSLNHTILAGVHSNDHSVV
Procedure: as §1
as §2, with “Md.). The C351F mutation renders the Gi2α protein resistant to inactivation by pertussis toxin or the alkylating agent N-ethylmaleimide; however in practice background binding was sufficiently low to obviate these maneuvers.” for “Md.).”
(§4) This assay isolates each recombinant LPA receptor and allows analysis of all three receptors using the same system.
as §3

LPP1 (PAP2a) = target: T3, LPP1 (PAP2a) (Homo sapiens, UniProt O14494); assay: LPP inhibition, competition with [32P]LPA, LPP1; format: biochemical; details: competition with 50 nM [32P]LPA
T3 sequence (O14494 1-284): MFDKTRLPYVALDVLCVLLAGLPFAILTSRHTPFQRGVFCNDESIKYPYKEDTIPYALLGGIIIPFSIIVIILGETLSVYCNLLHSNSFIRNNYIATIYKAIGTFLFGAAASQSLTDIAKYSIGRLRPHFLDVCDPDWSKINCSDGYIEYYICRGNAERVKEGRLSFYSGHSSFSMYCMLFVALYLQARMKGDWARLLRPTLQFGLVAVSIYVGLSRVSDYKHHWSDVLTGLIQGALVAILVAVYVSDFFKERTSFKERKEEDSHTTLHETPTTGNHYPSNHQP
Procedure: (§5) NOHPP was also tested for activity at the three cloned LPPs. Although the phosphonate head group eliminates the possibility of NOHPP acting as a substrate, it is possible that the compound could be a competitive inhibitor.

LPP3 (PAP2b) = target: T4, LPP3 (PAP2b) (Homo sapiens, UniProt O14495); assay: LPP inhibition, competition with [32P]LPA, LPP3; format: biochemical; details: competition with 50 nM [32P]LPA
T4 sequence (O14495 1-311): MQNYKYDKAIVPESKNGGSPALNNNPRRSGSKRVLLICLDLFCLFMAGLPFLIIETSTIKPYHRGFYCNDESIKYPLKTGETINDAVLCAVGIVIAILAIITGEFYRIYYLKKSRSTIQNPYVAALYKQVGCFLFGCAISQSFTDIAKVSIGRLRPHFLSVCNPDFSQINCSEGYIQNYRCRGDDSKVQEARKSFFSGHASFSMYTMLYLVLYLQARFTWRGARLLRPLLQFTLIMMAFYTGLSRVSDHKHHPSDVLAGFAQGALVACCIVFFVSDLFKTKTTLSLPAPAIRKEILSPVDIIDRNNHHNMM
Procedure: as §5

human LPA3 [3] = target: T5, human LPA3 (Homo sapiens, UniProt Q9UBY5); assay: GTP[γ35S] binding assay, agonist activity at LPA3; format: biochemical; set-up: expressed in transfected cells; host or cells: HEK293T cells (membranes)
T5 sequence (Q9UBY5 1-353): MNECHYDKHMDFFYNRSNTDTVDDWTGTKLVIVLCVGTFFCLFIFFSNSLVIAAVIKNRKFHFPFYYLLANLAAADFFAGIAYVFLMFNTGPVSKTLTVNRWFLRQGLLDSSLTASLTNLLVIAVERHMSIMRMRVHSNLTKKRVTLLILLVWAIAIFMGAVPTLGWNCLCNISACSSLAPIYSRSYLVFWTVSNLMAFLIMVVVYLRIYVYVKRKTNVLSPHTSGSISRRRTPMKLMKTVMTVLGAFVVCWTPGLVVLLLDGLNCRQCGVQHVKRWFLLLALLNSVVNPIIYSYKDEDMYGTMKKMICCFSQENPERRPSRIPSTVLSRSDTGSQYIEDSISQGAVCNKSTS
Procedure: as §1
as §2, with “Md.). The C351F mutation renders the Gi2α protein resistant to inactivation by pertussis toxin or the alkylating agent N-ethylmaleimide; however in practice background binding was sufficiently low to obviate these maneuvers.” for “Md.).”
as §4, §3

LPA receptors = assay: whole cell assays of calcium mobilization or inhibition of cAMP accumulation, agonist activity; format: cell-based
Procedure: (§6) Assays for cAMP accumulation were conducted on populations of 5×10^5 cells stimulated with […] in the presence of the phosphodiesterase inhibitor isomethylbutylxanthine (IBMX) for 15 minutes at 30° C. cAMP was measured by automated radioimmunoassay.
A FLIPR™ (Molecular Devices, Inc.) was used to measure intracellular calcium in A431 and HEK293T cells. A431 cells were seeded (˜50,000 cells/well) in 96-well clear bottom black microplates (Corning Costar Corp., Cambridge, Mass.) and left overnight in CO2 incubator at 37° C. HEK293T cells were treated likewise, but seeded onto poly D-lysine coated microplates (Becton Dickinson, Franklin Lakes, N.J.). A431 cells were dye-loaded with 4 μM Fluo-3 AM ester (Molecular Probes Inc., Eugene, Oreg.) in a loading buffer (1×HBSS buffer, pH 7.4, containing 20 mM HEPES, 0.1% BSA, and 2.5 mM probenecid) for 1 hour at 37° C. Cells were then washed four times with the loading buffer and exposed in the FLIPR™ to sets of compounds. HEK293T cells were loaded with 2 μM Fluo-4 AM ester (Molecular Probes Inc., Eugene, Oreg.) in the same loading buffer without probenecid for 30 minutes and washed four times before being exposed to compounds in the FLIPR™. […]
The same activity was determined with human LPA1 using a recombinant baculovirus-infected insect Sf9 cell membrane preparation.

LPA1 receptor = target: T6, LPA1 receptor (Mus musculus, UniProt P61793); assay: antagonism of LPA-evoked GTP[γ35S] binding at LPA1; format: biochemical; details: GTP[γ35S] binding
T6 construct: expressed in transfected cells; host or cells: HEK293T cells (membranes)
T6 sequence (P61793 whole entry): as the sequence (P61793 whole entry) above
Procedure: as §1, §2
The X-intercept of the linear transformation is equal to the inverse log of the KI.
All compounds were characterized by ^1H and ^13C NMR, mass spectroscopy and, in certain cases, elemental analysis. A GTP[γ35S] binding assay was adapted to assess in vitro activity.
All compounds were characterized by ^1H and ^13C NMR, mass spectroscopy and, in most cases, C, H, N analyses. A membrane-based GTP[γ^35S] binding assay was adapted to assess in vitro activity at the LPA1 and LPA3 receptors.

human platelets = assay: aggregation of human platelets; format: cell-based; details: concentrations up to 10 micromolar
Text: wls-b8L is expected to be resistant to hydrolysis by phosphohydrolases by virtue of its containing a phosphonate, rather than a phosphate, group. Furthermore this chemical entity (wls-b8L) has two additional desirable properties.

mouse LPA1 [4] = target: T2, mouse LPA1; assay: cAMP accumulation in RH7777 cells expressing LPA1; format: cell-based; set-up: expressed in transfected cells; details: concentration of 1 μM
Procedure: as §6
Rat hepatoma RH7777 cell monolayers were transfected with the mLPA1 plasmid DNA using the calcium phosphate precipitate method and clonal populations expressing the neomycin phosphotransferase gene were selected by addition of geneticin (G418) to the culture media. The RH7777 cells were grown in monolayers at 37° C. in a 5% CO02/95% air atmosphere in growth media consisting of: 90% MEM, 10% fetal bovine serum, 2 mM glutamine and 1 mM sodium pyruvate.
(§7) wls-b8L and the other phosphonates were also tested also for activity in three whole cell assays. […] Finally, the activity of wls-b8L in activating a chloride conductance in Xenopus laevis ooctyes was measured.

Xenopus laevis ooctyes = assay: chloride conductance in Xenopus laevis oocytes, endogenous receptor; format: cell-based
Procedure: as §7

human LPA2 [5] = target: T1, human LPA2; assay: chloride conductance in Xenopus oocytes injected with human LPA2 mRNA; format: cell-based; set-up: expressed in transfected cells; host or cells: Xenopus laevis oocytes injected with mRNA; details: 10 μM applied to the oocyte surface
Procedure: as §7

human LPA3 [6] = target: T5, human LPA3; assay: chloride conductance in Xenopus oocytes injected with human LPA3 mRNA; format: cell-based; set-up: expressed in transfected cells; host or cells: Xenopus laevis oocytes injected with mRNA; details: 10 μM applied to the oocyte surface
Procedure: as §7

T1 sequence (Q9HBW0 whole entry): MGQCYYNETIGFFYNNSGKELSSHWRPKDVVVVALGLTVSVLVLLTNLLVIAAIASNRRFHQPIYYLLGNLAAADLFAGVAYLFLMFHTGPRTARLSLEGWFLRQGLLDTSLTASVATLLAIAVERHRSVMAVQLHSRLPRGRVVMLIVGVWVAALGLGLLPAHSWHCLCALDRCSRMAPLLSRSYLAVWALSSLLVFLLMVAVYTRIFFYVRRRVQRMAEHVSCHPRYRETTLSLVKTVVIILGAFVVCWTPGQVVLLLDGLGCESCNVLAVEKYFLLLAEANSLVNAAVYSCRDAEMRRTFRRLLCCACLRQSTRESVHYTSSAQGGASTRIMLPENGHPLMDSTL

inhibition of LPP1 (LPP1 (PAP2a))	inhibition of LPP3 (LPP3 (PAP2b))	antagonist activity at LPA1, in words (LPA1 receptor)	inhibition of cAMP accumulation, efficacy (mouse LPA1 [4])	activating a chloride conductance, endogenous receptor (Xenopus laevis ooctyes)	chloride conductance response, oocytes injected with human LPA2 mRNA (human LPA2 [5])	chloride conductance response, oocytes injected with human LPA3 mRNA (human LPA3 [6])	Compound	agonist activity at LPA2, in words (human LPA2 [1])	agonist activity at LPA1, in words (mouse LPA1 [2])	inhibition of LPP3 (LPP3 (PAP2b); listed as VPC12031)	agonist activity at LPA3, in words (human LPA3 [3])	agonist activity in whole cell assays (LPA receptors)	aggregation of human platelets (human platelets)
to a lesser extent	inhibited	–	–	–	–	–	CCCCCCCC/C=C\CCCCCCCC(=O)NCCC(O)P(=O)(O)O (racemic) [NOHPP, (9Z)-N-(rac-3-hydroxy-3-phosphonopropyl)octadec-9-enamide]	fully efficacious; also recorded: as efficacious as, but somewhat less potent than, LPA	fully efficacious; also recorded: as efficacious as, but somewhat less potent than, LPA	markedly better at the PAP2b (LPP3) than PAP2a (LPP1)	little activity; also recorded: distinctly less potent and far less efficacious than LPA	–	–
–	–	did block LPA activity	–	–	–	–	CCCCCCCC/C=C\CCCCCCCC(=O)N[C@@H](COP(=O)(O)O)Cc1ccccc1 [VPC12084]	–	–	–	–	appreciable agonist activity	–
–	–	–	fully efficacious	does not evoke this response	very modest response	very modest response	CCCCCCCC/C=C\CCCCCCCC(=O)NCCCP(=O)(O)O [wls-b8L, (9Z)-N-(3-phosphonopropyl)octadec-9-enamide]	–	more potent and efficacious at LPA1 than at either LPA2 or LPA3	–	–	–	does not elicit aggregation
